Results taken from patent publication US6479435B1, “Diaryl ethers and processes for their preparation and herbicidal and desiccant compositions containing them” (ISK Americas Incorporated, priority 1997, dated 2002).

Key:
Assay type in all cases: in vivo
[1] = tested on: field corn (Zea mays L., var. Dekalb 535, CORN); test: Pre-emerge greenhouse test, crop damage rating; conditions: 14 days after application, rating scale 0-100
How it was run: (§1)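 Seeds sown in sandy loam one day before track-sprayer application of acetone solutions at 125–1000 g ai/ha (187 l/ha), then surface-watered to incorporate and bottom-watered. Injury scored visually at 14 days on a 0–100 scale (0 no damage, 100 complete death).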

[2] = tested on: upland rice (Oryza sp., var.Tebonnet, RICE); test: Pre-emerge greenhouse test, crop damage rating; conditions: 14 days after application, rating scale 0-100
How it was run: as §1

[3] = tested on: common ragweed (Ambrosia artemisiifolia L., AMBEL); test: Post-emerge greenhouse herbicide test, phytotoxicity rating; conditions: 14 days after application
How it was run: (§2)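 Plants at the 2-3 leaf stage, sown 8-21 days earlier, were track-sprayed post-emergence with compound in acetone plus 0.25% v/v non-ionic surfactant at 63-1000 g ai/ha (187 l/ha). Damage was rated at 14 days on a 0-100 scale (0 none, 100 all plants dead), for both crop injury and weed control.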

[4] = tested on: field corn (Zea mays L., var. Dekalb 535, CORN); test: Post-emerge greenhouse test, crop damage rating; conditions: 14 days after application
How it was run: as §2

[5] = tested on: upland rice (Oryza sp., var.Tebonnet, RICE); test: Post-emerge greenhouse test, crop damage rating; conditions: 14 days after application
How it was run: as §2

[6] = tested on: redroot pigweed (Amaranthus retroflexus, AMARE); test: Post-emerge greenhouse herbicide test, phytotoxicity rating; conditions: 14 days after application
How it was run: as §2

[7] = tested on: barnyardgrass (Echinochloa crusgalli, ECHCG); test: as above; conditions: 14 days after application
How it was run: as §2

[8] = tested on: ivyleaf morningglory (Ipomoea hederacea, IPOHE); test: as above; conditions: 14 days after application
How it was run: as §2

[9] = tested on: Johnsongrass (Sorghum halepense, SORHA); test: as above; conditions: 14 days after application
How it was run: as §2

[10] = tested on: large crabgrass (Digitaria sanguinalis, DIGSA); test: as above; conditions: 14 days after application
How it was run: as §2

[11] = tested on: velvetleaf (Abutilon theophrasti, ABUTH); test: as above; conditions: 14 days after application
How it was run: as §2

[12] = tested on: green foxtail (Setaria viridis, SETVI); test: as above; conditions: 14 days after application
How it was run: as §2

[13] = tested on: lambsquarters (Chenopodium album, CHEAL); test: as above; conditions: 14 days after application
How it was run: as §2

[14] = tested on: redroot pigweed (Amaranthus retroflexus, AMARE); test: Pre-emerge greenhouse herbicide test, phytotoxicity rating; conditions: 14 days after application, rating scale 0-100
How it was run: as §1

[15] = tested on: barnyardgrass (Echinochloa crusgalli, ECHCG); test: as above; conditions: 14 days after application, rating scale 0-100
How it was run: as §1

[16] = tested on: ivyleaf morningglory (Ipomoea hederacea, IPOHE); test: as above; conditions: 14 days after application, rating scale 0-100
How it was run: as §1

[17] = tested on: Johnsongrass (Sorghum halepense, SORHA); test: as above; conditions: 14 days after application, rating scale 0-100
How it was run: as §1

[18] = tested on: large crabgrass (Digitaria sanguinalis, DIGSA); test: as above; conditions: 14 days after application, rating scale 0-100
How it was run: as §1

[19] = tested on: sicklepod (Cassia obtusifolia, CASOB); test: as above; conditions: 14 days after application, rating scale 0-100
How it was run: as §1

[20] = tested on: common ragweed (Ambrosia artemisiifolia L., AMBEL); test: as above; conditions: 14 days after application, rating scale 0-100
How it was run: as §1

[21] = tested on: velvetleaf (Abutilon theophrasti, ABUTH); test: as above; conditions: 14 days after application, rating scale 0-100
How it was run: as §1

[22] = tested on: green foxtail (Setaria viridis, SETVI); test: as above; conditions: 14 days after application, rating scale 0-100
How it was run: as §1

[23] = tested on: lambsquarters (Chenopodium album, CHEAL); test: as above; conditions: 14 days after application, rating scale 0-100
How it was run: as §1

[24] = tested on: soybean (Glycine max L., var. Pella 86, SOY); test: Post-emerge greenhouse test, crop damage rating; conditions: 14 days after application
How it was run: as §2

[25] = tested on: soybean (Glycine max L., var. Pella 86, SOY); test: Pre-emerge greenhouse test, crop damage rating; conditions: 14 days after application, rating scale 0-100
How it was run: as §1

## Cn1nc(-c2cc(Oc3ncccc3[N+](=O)[O-])c(Cl)cc2F)c(Cl)c1C(F)(F)F [Compound 1-1]
[1]; 500 g ai/ha
  crop damage rating CORN: 20
[2]; 500 g ai/ha
  crop damage rating RICE: 20
[3]; 500 g al/ha
  AMBEL phytotoxicity rating (0-100): 100
[4]; 500 g al/ha
  CORN crop damage rating (0-100): 60
[5]; 500 g al/ha
  RICE crop damage rating (0-100): 90
[6]; 500 g al/ha
  AMARE phytotoxicity rating (0-100): 100
[7]; 500 g al/ha
  ECHCG phytotoxicity rating (0-100): 100
[8]; 500 g al/ha
  IPOHE phytotoxicity rating (0-100): 100
[9]; 500 g al/ha
  SORHA phytotoxicity rating (0-100): 90
[10]; 500 g al/ha
  DIGSA phytotoxicity rating (0-100): 95
[11]; 500 g al/ha
  ABUTH phytotoxicity rating (0-100): 100
[12]; 500 g al/ha
  SETVI phytotoxicity rating (0-100): 100
[13]; 500 g al/ha
  CHEAL phytotoxicity rating (0-100): 100
[14]; 500 g ai/ha
  phytotoxicity rating AMARE: 100
[15]; 500 g ai/ha
  phytotoxicity rating ECHCG: 50
[16]; 500 g ai/ha
  phytotoxicity rating IPOHE: 10
[17]; 500 g ai/ha
  phytotoxicity rating SORHA: 70
[18]; 500 g ai/ha
  phytotoxicity rating DIGSA: 90
[19]; 500 g ai/ha
  phytotoxicity rating CASOB: 20
[20]; 500 g ai/ha
  phytotoxicity rating AMBEL: 50
[21]; 500 g ai/ha
  phytotoxicity rating ABUTH: 60
[22]; 500 g ai/ha
  phytotoxicity rating SETVI: 100
[23]; 500 g ai/ha
  phytotoxicity rating CHEAL: 100
[24]; 500 g al/ha
  SOY crop damage rating (0-100): 100
[25]; 500 g ai/ha
  crop damage rating SOY: 10

## Cn1nc(-c2cc(Oc3ncccc3C(F)(F)F)c(Cl)cc2F)c(Cl)c1C(F)(F)F [Compound 1-2]
[1]; 125 g ai/ha
  crop damage rating CORN: 10
[1]; 500 g ai/ha
  crop damage rating CORN: 90
[2]; 125 g ai/ha
  crop damage rating RICE: 30
[2]; 500 g ai/ha
  crop damage rating RICE: 40
[3]; 63 g al/ha
  AMBEL phytotoxicity rating (0-100): 30
[3]; 500 g al/ha
  AMBEL phytotoxicity rating (0-100): 90
[4]; 63 g al/ha
  CORN crop damage rating (0-100): 0
[4]; 500 g al/ha
  CORN crop damage rating (0-100): 10
[5]; 63 g al/ha
  RICE crop damage rating (0-100): 0
[5]; 500 g al/ha
  RICE crop damage rating (0-100): 0
[6]; 63 g al/ha
  AMARE phytotoxicity rating (0-100): 80
[6]; 500 g al/ha
  AMARE phytotoxicity rating (0-100): 100
[7]; 63 g al/ha
  ECHCG phytotoxicity rating (0-100): 0
[7]; 500 g al/ha
  ECHCG phytotoxicity rating (0-100): 80
[8]; 63 g al/ha
  IPOHE phytotoxicity rating (0-100): 30
[8]; 500 g al/ha
  IPOHE phytotoxicity rating (0-100): 90
[9]; 63 g al/ha
  SORHA phytotoxicity rating (0-100): 20
[9]; 500 g al/ha
  SORHA phytotoxicity rating (0-100): 40
[10]; 63 g al/ha
  DIGSA phytotoxicity rating (0-100): 0
[10]; 500 g al/ha
  DIGSA phytotoxicity rating (0-100): 50
[11]; 63 g al/ha
  ABUTH phytotoxicity rating (0-100): 30
[11]; 500 g al/ha
  ABUTH phytotoxicity rating (0-100): 100
[12]; 63 g al/ha
  SETVI phytotoxicity rating (0-100): 0
[12]; 500 g al/ha
  SETVI phytotoxicity rating (0-100): 40
[13]; 63 g al/ha
  CHEAL phytotoxicity rating (0-100): 70
[13]; 500 g al/ha
  CHEAL phytotoxicity rating (0-100): 100
[14]; 125 g ai/ha
  phytotoxicity rating AMARE: 80
[14]; 500 g ai/ha
  phytotoxicity rating AMARE: 100
[15]; 125 g ai/ha
  phytotoxicity rating ECHCG: 20
[15]; 500 g ai/ha
  phytotoxicity rating ECHCG: 50
[16]; 125 g ai/ha
  phytotoxicity rating IPOHE: 0
[16]; 500 g ai/ha
  phytotoxicity rating IPOHE: 60
[17]; 125 g ai/ha
  phytotoxicity rating SORHA: 30
[17]; 500 g ai/ha
  phytotoxicity rating SORHA: 50
[18]; 125 g ai/ha
  phytotoxicity rating DIGSA: 40
[18]; 500 g ai/ha
  phytotoxicity rating DIGSA: 95
[19]; 125 g ai/ha
  phytotoxicity rating CASOB: 80
[19]; 500 g ai/ha
  phytotoxicity rating CASOB: 0
[20]; 125 g ai/ha
  phytotoxicity rating AMBEL: 80
[20]; 500 g ai/ha
  phytotoxicity rating AMBEL: 80
[21]; 125 g ai/ha
  phytotoxicity rating ABUTH: 0
[21]; 500 g ai/ha
  phytotoxicity rating ABUTH: 70
[22]; 125 g ai/ha
  phytotoxicity rating SETVI: 90
[22]; 500 g ai/ha
  phytotoxicity rating SETVI: 99
[23]; 125 g ai/ha
  phytotoxicity rating CHEAL: 50
[23]; 500 g ai/ha
  phytotoxicity rating CHEAL: 99
[24]; 63 g al/ha
  SOY crop damage rating (0-100): 10
[24]; 500 g al/ha
  SOY crop damage rating (0-100): 50
[25]; 125 g ai/ha
  crop damage rating SOY: 0
[25]; 500 g ai/ha
  crop damage rating SOY: 10
